Measured values: patent US11512097B2, “Heterocyclic compounds as Delta-5 desaturase inhibitors and methods of use” (Amgen Inc., priority 2019, dated 2022)

Legend:
[1] = target: T1, Delta-5-Desaturase (D5D), membrane preparations of D5D-overexpressing HEK293 6E cells (Homo sapiens, UniProt O60427); assay: In vitro measurement of Delta-5-Desaturase inhibitory activity using DGLA-CoA and Arachidonyl-CoA mass spectrometric assays; assay type: biochemical; details: D5D membrane 10 μg/mL, one-hour incubation, average of at least two independent runs
T1 construct: expressed in transfected cells; host or cells: HEK293 6E cells (membrane preparation)
T1 sequence (O60427 whole entry, species assumed): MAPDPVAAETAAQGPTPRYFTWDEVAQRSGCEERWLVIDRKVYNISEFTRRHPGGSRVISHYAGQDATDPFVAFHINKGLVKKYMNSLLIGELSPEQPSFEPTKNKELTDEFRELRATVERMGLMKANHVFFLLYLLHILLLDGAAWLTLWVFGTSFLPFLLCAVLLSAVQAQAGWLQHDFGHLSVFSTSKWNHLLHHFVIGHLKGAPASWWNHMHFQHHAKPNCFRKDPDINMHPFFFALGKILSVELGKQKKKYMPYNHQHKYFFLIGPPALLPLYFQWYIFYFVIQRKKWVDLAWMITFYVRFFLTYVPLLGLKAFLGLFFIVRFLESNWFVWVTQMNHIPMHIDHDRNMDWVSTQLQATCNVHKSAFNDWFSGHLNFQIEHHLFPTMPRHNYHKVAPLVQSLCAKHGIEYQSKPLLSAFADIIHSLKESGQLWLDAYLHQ
Method in brief: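 Substrate mix (0.01 mM DGLA with NADH, ATP, coenzyme A) was incubated 1 h at room temperature with HEK293 6E D5D membranes at 10 μg/mL final, pH 7.5. Negative-mode SPE-MS/MS monitored DGLA-CoA (m/z 526.6) and arachidonyl-CoA (m/z 525.6). Inhibition normalised to DMSO and no-enzyme wells gave IC50s, mean of ≥2 runs.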

[2] = system: Diet-Induced Obese (DIO) mice; assay: Assessment of D5D inhibitor in Diet-Induced Obese (DIO) mice; assay type: in vivo, Male C57BL/6J DIO mice; details: for Fat mass / Lean mass: day 22, EchoMRI; for Blood glucose: day 25, 4 hour fasted; for AA / Cholesterol / DGLA / Insulin / LDL cholesterol / Triglycerides: day 25, 4 hour fasted plasma; for Body weight / Liver weights / epididymal WAT / inguinal WAT: day 27
Description: Assessment of D5D Inhibitor in Diet-Induced Obese (DIO) Mice
Male C57BL/6J DIO mice (Jackson Laboratories, Stock No.: 380050) were fed high-fat diet (Research Diets, Inc., D12492) for 12 weeks. All animals were given free access to water and chow. Animals were acclimated to per os dosing for 3 days prior to the start of the experiment. Animals were randomized on body weight, fat mass, lean mass, and blood glucose concentrations in to groups of 8 to 10 animals per group. Animals were twice daily dosed per os with either: vehicle (2% hydroxypropyl methylcellulose and 1% tween 80 in water), Example 2 at 10 mg/kg, or 30 mg/kg (formulated in 2% hydroxypropyl methylcellulose and 1% tween 80 in water), or Example 45 at 3 mg/kg, or 10 mg/kg (formulated in 2% hydroxypropyl methylcellulose and 1% tween 80 in water). Three-day average (Example 2) or daily average (Example 45) food consumption was measured at the indicated times as shown in Table 17 and Table 18. Body composition (EchoMRI) was determined on day 78 for Example 2 and day 22 for Example 45. For Example 2, a non-fasted blood collection was performed on day 81; blood glucose was immediately measured, and plasma samples created from the remaining blood and used to measure DGLA and AA concentrations. On day 84, a 4-hour fasted blood collection was performed, and plasma samples were created from the blood and used to measure cholesterol, triglycerides, low-density lipoprotein (LDL) cholesterol, insulin, and adipokine (adiponectin, leptin, and resistin) levels. For Example 45, 4 hour fasted blood samples were collected on day 25 and blood glucose was measured immediately and the plasma samples created from the remaining blood were used to measure cholesterol, triglycerides, LDL cholesterol, insulin, DGLA and AA concentration. At the end of the studies, liver, epididymal white adipose tissue, inguinal white adipose tissue, mesenteric (only Example 2) white adipose tissue weights were recorded. Data was analyzed using GraphPad Prism v 7.04.
The D5D inhibitor dose-dependently led to weight loss over the course of the experiment (Table 17 and Table 18) compared to vehicle controls. Consistently fat mass was reduced, along with lower inguinal, epididymal and mesenteric white adipose tissue (WAT) weights at necropsy. Blood glucose and plasma insulin levels were both reduced by the D5D inhibitor, along with reductions in plasma cholesterol and triglycerides. Evidence of target engagement was established by observing increases in plasma DGLA and decreases in plasma AA.

[3] = target: T2, Delta-5-Desaturase (D5D) (Mus musculus, UniProt Q920L1); assay: In vivo measurement of Delta-5-Desaturase inhibitory activity (plasma AA/DGLA ratio in DIO mice); details: single oral dose 30 mg/kg, relative to vehicle group
T2 construct: tissue Jackson Laboratories strain #3800050; host or cells: whole animal (DIO mice)
T2 sequence (Q920L1 1-447): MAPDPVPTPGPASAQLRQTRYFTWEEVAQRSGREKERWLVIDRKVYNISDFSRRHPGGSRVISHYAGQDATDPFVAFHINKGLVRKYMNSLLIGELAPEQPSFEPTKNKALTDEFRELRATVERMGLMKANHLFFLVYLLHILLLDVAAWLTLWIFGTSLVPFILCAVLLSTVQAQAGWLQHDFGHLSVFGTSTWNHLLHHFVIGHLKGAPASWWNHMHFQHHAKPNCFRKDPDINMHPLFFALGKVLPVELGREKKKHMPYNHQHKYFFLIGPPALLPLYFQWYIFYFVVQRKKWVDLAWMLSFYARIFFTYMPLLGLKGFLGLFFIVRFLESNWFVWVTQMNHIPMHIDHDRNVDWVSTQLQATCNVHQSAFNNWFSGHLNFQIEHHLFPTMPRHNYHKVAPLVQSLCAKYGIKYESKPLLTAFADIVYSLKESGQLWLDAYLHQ
Method: In Vivo Measurement of Delta-5-Desaturase Inhibitory Activity
Diet-induced obese (DIO; Jackson Laboratories strain #[…]) mice were used to screen for pharmacodynamic (PD) activity of test compounds. Generally, 14 to 24 week old DIO mice, were administered test compounds formulated in the vehicle of 2% hydroxypropyl methylcellulose (HPMC) and 1% Tween80. Animals were dosed on body weight by oral gavage with a single dose (30 mg/kg) for PD studies. Necropsy included plasma collection for PUFA analysis. 10 μl of plasma or standards diluted in surrogate matrix (65 g/l bovine serum albumin in Dulbecco's phosphate-buffered saline) were mixed with 10 μl of an internal standard (100 μM alpha-linolenic acid-d14 (ALA-d14, Cayman Chemical)) in a 96 well plate. 100 μl of 2N NAOH was added to the mixture for subsequent saponification at 65° C. for 1 hour. The mixture was then acidified with 50 μl of formic acid followed by two consecutive hexane extractions. Hexane (500 μl) was added and the mixture thoroughly mixed by vortexing, followed by centrifugation at 4,000 rpm for 15 min. The hexane phase was transferred to a new 1 ml 96 well plate and the remaining aqueous layer was extracted with hexane. The organic extracts were combined and the solvent was removed by placing the plate under nitrogen gas at 55° C. 250 μl of 90% methanol was added to the plate followed by vortexing for 2 minutes. 200 μl of the samples were transferred to a new 96 well polypropylene plate. The samples were analyzed on a LC-MS/MS for the following PUFAs: arachidonic acid (AA), dihomo-gamma-linolenic acid (DGLA), with ALA-d14 as the internal standard. Description of the LC-MS/MS method: 5 μl of sample was injected onto a Poroshell 120 EC-C18 3.0×50 mm, 1.9 μm id column. […] The PUFA peak areas were quantified by using the SCIEX Analyst software. […] The relative decrease of the AA/DGLA ratio of the test compound administered group relative to the vehicle administered group was calculated and used as an index for the degree of D5D inhibition. […]

[4] = Example 45 3 mg/kg twice daily per os
[5] = Example 45 10 mg/kg twice daily per os

Compound `O=c1c(-c2cnn(CC(F)(F)C(F)(F)F)c2)c(C(F)(F)F)nc2sc(CO)nn12` [Example 45, 2-(hydroxymethyl)-6-[1-(2,2,3,3,3-pentafluoropropyl)-1H-pyrazol-4-yl]-7-(trifluoromethyl)-5H-[1,3,4]thiadiazolo[3,2-a]pyrimidin-5-one] has an IC50 [1] of 21.1 nM, a Food consumption ([2]; Example 45 3 mg/kg twice daily per os, day 0, daily average) of 2.5 ± 0.3 g/day and a Food consumption ([2]; Example 45 3 mg/kg twice daily per os, day 7, daily average) of 3.0 ± 0.3 g/day. The Food consumption ([2]; Example 45 3 mg/kg twice daily per os, day 14, daily average) was 2.7 ± 0.3 g/day, the Food consumption ([2]; Example 45 3 mg/kg twice daily per os, day 21, daily average) was 2.7 ± 0.2 g/day and the Fat mass [2, 4] was 19.7 ± 2.2 g. The Lean mass [2, 4] was 27.4 ± 1.5 g, the Blood glucose [2, 4] was 176.1 ± 9.4 mg/dL and the AA [2, 4] was 88.6 ± 18.9 µg/mL. For the same compound, the Cholesterol [2, 4] was 160.4 ± 43.7 mg/dL, the DGLA [2, 4] was 286.9 ± 47.7 µg/mL and the Insulin [2, 4] was 7.2 ± 1.8 ng/mL. It also gave an LDL cholesterol [2, 4] of 130.6 ± 25.1 mg/dL, a Triglycerides [2, 4] of 32.6 ± 5.2 mg/dL and a Body weight [2, 4] of 47.8 ± 2.8 g. The Liver weights [2, 4] was 2.6 ± 0.4 g, the “epididymal WAT” value [2, 4] was 1.8 ± 0.3 g and the “inguinal WAT” value [2, 4] was 2.2 ± 0.5 g. It also gave a Food consumption ([2]; Example 45 3 mg/kg twice daily per os, day 27, daily average) of 2.5 ± 0.2 g/day, a Food consumption ([2]; Example 45 10 mg/kg twice daily per os, day 0, daily average) of 2.6 ± 0.3 g/day and a Food consumption ([2]; Example 45 10 mg/kg twice daily per os, day 7, daily average) of 2.6 ± 0.3 g/day. The Food consumption ([2]; Example 45 10 mg/kg twice daily per os, day 14, daily average) was 2.4 ± 0.2 g/day, the Food consumption ([2]; Example 45 10 mg/kg twice daily per os, day 21, daily average) was 2.5 ± 0.2 g/day and the Fat mass [2, 5] was 16.9 ± 2.3 g. For the same compound, the Lean mass [2, 5] was 26.7 ± 1.1 g, the Blood glucose [2, 5] was 156.1 mg/dL and the AA [2, 5] was 38.2 ± 3.6 µg/mL. The Cholesterol [2, 5] was 162.8 mg/dL, the DGLA [2, 5] was 212.6 µg/mL and the Insulin [2, 5] was 5.2 ± 0.7 ng/mL. It also gave an LDL cholesterol [2, 5] of 129.0 mg/dL, a Triglycerides [2, 5] of 26.3 ± 5.5 mg/dL and a Body weight [2, 5] of 43.8 ± 3.1 g. The Liver weights [2, 5] was 2.6 ± 0.5 g, the “epididymal WAT” value [2, 5] was 1.7 ± 0.3 g and the “inguinal WAT” value [2, 5] was 1.9 ± 0.2 g. The Food consumption ([2]; Example 45 10 mg/kg twice daily per os, day 27, daily average) was 2.4 ± 0.2 g/day.
With `Cn1c(Cl)cn2c(=O)c(-c3cnn(CC(F)(F)C(F)(F)F)c3)c(C(F)(F)F)nc12` [Example 48, 2-chloro-1-methyl-6-[1-(2,2,3,3,3-pentafluoropropyl)-1H-pyrazol-4-yl]-7-(trifluoromethyl)-1H,5H-imidazo[1,2-a]pyrimidin-5-one] the IC50 [1] was 6.8 nM and the “Average % D5D Inhibition expressed as Plasma Endogenous AA/DGLA Ratio” value [3] was 68%.
`Cc1cn2c(=O)c(-c3cnn(CC(F)(F)C(F)(F)F)c3)c(C(F)(F)F)nc2n1C` [Example 52, 1,2-dimethyl-6-[1-(2,2,3,3,3-pentafluoropropyl)-1H-pyrazol-4-yl]-7-(trifluoromethyl)-1H,5H-imidazo[1,2-a]pyrimidin-5-one] was tested, and the IC50 [1] was 47.5 nM and the “Average % D5D Inhibition expressed as Plasma Endogenous AA/DGLA Ratio” value [3] was 74%.
